From a melting point compilation (Tetko et al.; mined from patent text by program, amines drawn as free bases though some values may be those of a salt)

| melting point | SMILES |
| --- | --- |
| 146 to 148 °C | CC12CCC(C1)C1(C)Oc3ccc(C(O)c4ccc5cc(C(=O)O)ccc5c4)cc3C21C (centres undefined) |
| 160 to 161 °C | CN(C)c1ncc(-c2cccc(Nc3ccc(-c4ccco4)cc3[N+](=O)[O-])c2)cn1 |
| 194 °C | O=C1CNN(c2cc(Cl)c(C(C(=O)O)c3ccc(Cl)cc3)c(Cl)c2)C(=O)N1 (centres undefined) |
| 201 to 204 °C | COc1cn(C)c(=O)c(O)n1 |
| 112 to 113 °C | O=Cc1ccc(C=Cc2ccccc2)cc1 |
| 236 to 237 °C | CC(C)n1nc(-c2sc(N)nc2-c2cccc(Cl)c2)ccc1=O |
| 303 to 304 °C | O=c1[nH]c2cc(Br)ccc2c(=O)n1Cc1ccc(I)cc1F |
| 85 to 86 °C | CCCCCCCCc1cc2c(cc1/C(C)=C/c1ccc(C(=O)OC)cc1)C(C)(C)CCCS2(=O)=O |
| 242 °C | O=C(O)c1cn(-c2ccc(F)cc2)c2cc(N3CCNC(c4ccco4)C3)c(F)cc2c1=O (centres undefined) |
| 114 to 116 °C | Cc1c(N)c(C#N)cc(F)c1F |
| 85 to 90 °C | COC(=O)CCCc1cc2nc(Cl)ccc2n1S(=O)(=O)c1ccc2nc(N)sc2c1 |
| 264 to 266 °C | Nc1cc(Sc2ccc3c(C(=O)O)cccc3c2)ncn1 |
| 59.2 to 61.2 °C | Cc1ncsc1CNc1ccc(-n2nc(C(F)(F)F)cc2C2CC2)cc1 |
| 202 to 204 °C | Oc1cc(OCc2ccccn2)ccc1/C=C/c1cc(/C=C/c2ccc3cc[nH]c3c2)n[nH]1 |
| 79 to 81 °C | COCC(C#N)=Cc1cc(OC)c(OC)c(OC)c1 |
| 208 to 211 °C | CCOc1cccc(C(COC)n2nc(C(=O)O)c3c2-c2ccc(OCc4cncnc4)cc2CC3)c1 (centres undefined) |
| 140 to 143 °C | CCOC(=O)C(C=O)Cc1ccn(Cc2ccccc2)c(=O)c1 (centres undefined) |
| 159 °C | O=C(c1ccccc1)N1CC(O)C(O)C(O)C1CO (centres undefined) |
| 58 to 60 °C | CC1(C)COC(C(=O)O)OC1 |

| melting point | SMILES |
| --- | --- |
| 218 to 221 °C | CC(C)n1nc(-c2c(Oc3ccccc3)nc(N)nc2-c2ccccc2)ccc1=O |
| 149 to 151 °C | OC1CCCCC1n1c(NC2CC2)nc2cc(Cl)c(Cl)cc21 (centres undefined) |
| 99 to 103 °C | O=C(Cc1ccccc1Cl)Nc1ccc(C(=O)N2Cc3cccn3Cc3ccccc32)cc1 |
| 224 to 226 °C | CS(=O)(=O)c1ccc(C=Cc2ccc(OCCO)cc2)cc1 |
| 161 to 163 °C | CCC(CCC1(C(N)=O)c2ccccc2-c2ccccc21)NC(C)C (centres undefined) |
| 129 to 130 °C | C[C@]1(CN2CCN(C(=O)OCc3cc(Cl)cc(Cl)c3)CC2)Cn2cc([N+](=O)[O-])nc2O1 |
| 215 to 216 °C | CCOC(=O)c1sc(SC)c2c1CCC(NC(C)=O)C2=O (centres undefined) |
| 200 to 202 °C | Cc1cccc2c1C(=O)N(C)CC(=O)N2 |
| 115 to 116 °C | COCCOc1ccc(O)c(C(=O)O)c1 |
| 148 °C | CNS(=O)(=O)c1cccc(-c2ccc3cccc(N4CCN(C)CC4)c3c2)c1 |
| 68 to 72 °C | O=C(C=Cc1ccccc1F)C=Cc1ccccc1F |
| 204 °C | O=C(NC(=O)c1c(Cl)cccc1Cl)Nc1cc(Br)c(Br)cc1C(F)(F)F |
| 200 to 201 °C | CN(c1cccc2cc(-c3nc(CCC(N)=O)cs3)[nH]c12)S(=O)(=O)c1cccs1 |
| 179 to 181 °C | CN(Cc1cc(C(F)(F)F)cc(C(F)(F)F)c1)C(=O)c1c(-c2ccc(F)cc2)c2ccncc2c(=O)n1C |
| 190 to 192 °C | O=C(NCc1ccccc1N1CCOCC1)c1ccn2nc(-c3ccccc3)cc2n1 |
| 182 to 183 °C | O=CNC1=NN(c2ccccn2)CC1 |
| 175 to 178 °C | O=C(NC[C@H]1CN(c2ccc(N3CCC4(CC3)OCCO4)c(F)c2)C(=O)O1)C(Cl)Cl |
| 63.6 °C | COc1ccc2cc(CC(C(C)=O)C(=O)OC(C)(C)C)ccc2c1 (centres undefined) |
| > 280 °C | N#Cc1c2c(cc3ccc(O)cc13)-c1ccc(O)cc1CO2 |

| SMILES | melting point |
| --- | --- |
| CN1CC=C(c2c[nH]c3ccc(-c4cnc5[nH]cc(C(=O)C(C)(C)C)c5n4)cc23)CC1 | 263 to 265 °C |
